Experimental data as given in patent US11491144B2, “Methods of treating fragile X mental retardation syndrome” (The Florida State University Research Foundation, …, priority 2018, dated 2022).

Columns and labels:
male FX mice = assay: Spontaneous locomotor activity assay (photobeam breaks, dark phase); format: in vivo, mouse; conditions: male FX mice (B6.129P2-Fmr1tm1Cgr/J); nor-BNI 20 mg/kg or MPH 0.75 mg/kg intraperitoneal; measured between 7 pm and 7 am
Text: (§1) The B6.129P2-Fmr1^tm1Cgr/J strain of mouse was used in the studies as it is a widely used mouse model of FX (Kazdoba et al. Intractable Rare Dis. Res. 2014, 3, 118), and C57BL/6J mice were used as the control strain of mice. Mice were housed 2-4 per cage and maintained on a “reversed” light cycle (lights-off at 7 am and lights-on at 7 pm). They were habituated to the investigator by extensive handing for at least one week prior to the beginning of behavioral analyses. Additionally, they were habituated to the behavioral test room for at least 30 min prior to the behavioral testing, and testing was conducted under dim red light.
(§2) The mice underwent a battery of tests starting on postnatal day 60 (P60). Behavioral analyses included measurements of spontaneous locomotor activity, working memory, attention, and social interactions. Approximately 12 male and/or female mice were used for each behavioral test.
Spontaneous locomotor activity was assayed by using a testing chamber with photobeam motion sensors (Photobeam Activity Systems, San Diego Instruments, San Diego, Calif.). […] Photobeam breaks were recorded, scored as an ambulatory event, and grouped into hourly activity measurements for statistical analysis. Cumulative activity over the 12 hour “dark phase” was calculated. […]

FX mice = assay: Cliff avoidance reflex (CAR) test for motor impulsivity; format: in vivo, mouse; conditions: 20 mg/kg intraperitoneal, 30 min test, 5 min intervals
Text: as §1, §2
Motor-impulsivity was assayed using a cliff avoidance reflex (CAR) test. The apparatus consists of a round Plexiglas platform (20 cm in diameter) supported by an iron rod (50 cm in height). The mouse is placed on the platform and observed over a period of 30 min. If the mouse falls off the platform during the 30 min period, it is picked up and returned to the platform to complete the test. The number of falls is recorded, and the data are analyzed at 5 min intervals.

SMILES	Spontaneous locomotor activity compared to saline (male FX mice)	Time course of cliff avoidance reflex (FX mice; female FX mice)	Time course of cliff avoidance reflex (FX mice; male FX mice)
COC(=O)C(c1ccccc1)C1CCCCN1 (stereo not shown) [Methylphenidate, methylphenidate]	did not produce significant effects		
Oc1ccc2c3c1O[C@H]1c4[nH]c5c(c4C[C@@]4(O)[C@@H](C2)N(CC2CC2)CC[C@]314)C[C@@]1(O)[C@H]2Cc3ccc(O)c4c3[C@@]1(CCN2CC1CC1)[C@H]5O4 [nor-BNI, norbinaltorphimine]	significant reduction in activity	improved the time course of cliff avoidance reflex	did not produce significant effects
